Legend:
p56^Ick tyrosine kinase = molecular target: T1, p56^Ick tyrosine kinase (Homo sapiens, UniProt P06239); experiment: Ick kinase cell-free assay (immunoprecipitated from Jurkat lysate); assay type: biochemical
T1 construct: samples containing Ick immuno-precipitated from 2×10^6 cells; endogenous in cells; host or cells: Jurkat (human T-cell leukemia, ATCC clone E6-1)
Protocol: Ick Kinase: Immunoprecipitated from Jurkat Lysate
B. Cells are grown to 1-1.5×10^6 cells/ml media, pelleted by centrifugation, and lysed in lysis buffer at 10^8 cells/ml buffer (50 mM tris (pH 8), 150 mM NaCl, 5 mM EDTA, 10% glycerol, and 1% NP-40, to which fresh protease and phosphatase inhibitors are added as described above for A431 lysate). Lysates stored at −70° C.
C. Immunoprecipitation: 3-4 mg Protein-A sepharose/sample washed 2×20 mM Hepes (pH 7.5). 1 ul α-Ick antibody (prepared as polyclonals in rabbits using a peptide antigen corresponding to the N-terminal region of human Ick) per sample added to the Protein-A and shaken 20 min at room temperature. After washing 3× HNTG, lysate from 2×10^6 cells is added to each sample, rotated 2 hr at 4° C., then washed 3× HNTG (2nd wash containing 0.5 N NaCl). If all samples contain identical concentrations of the enzyme, then the immuno-precipitation can be done in bulk and alloquoted to appropriate numbers of tubes prior to assay set-up.
Samples are analyzed by 5-15% SDS-PAGE and autoradiography as described for EGFR kinase assays.

CSF-1R tyrosine kinase = molecular target: T2, CSF-1R tyrosine kinase (Homo sapiens, UniProt P07333); experiment: CSF-1R cell-free autophosphorylation assay; assay type: biochemical
T2 construct: host or cells: unnamed cell lysate ('stimulated lysate')
Protocol: CSF-1R Cell-free Autophosphorylation Assay
For a regular 28 tube assay (14 samples per 15 well gel):
In 2 ml eppendorf tube: 140 mg protein A sepharose (5 mg/sample)
Swell in 20 mM Hepes pH 7.5 and wash 2× in Hepes
In 15 ml tube: 2.8 ml lysate lysis buffer: 20 mM Hepes
Protease inhibitors added fresh:
PMSF: 8 mg/ml=[…] in 100% EtOH, store frozen, add 100 λ/10 ml lysis buffer Aprotinin: 10 mg/ml=250× in H2O, store frozen, add 40 λ/10 ml lysis buffer Leupeptin: 1 mg/ml=250× in H2O, store frozen, add 40 λ/10 ml lysis buffer Add washed beads to stimulated lysate and incubate 90 min 4° C. on rotator or shaking prepare 28 compound tubes: make 40 mM solutions of compounds in 100% DMSO make serial dilutions in 50 mM Tris pH 7.5+10 mM MnCl2 aliquot 10λ compound solution into each 1 ml eppendorf reaction tube waiting on ice, control blanks get 10λ buffer Wash beads 1×HNTG, 2×10 mM Tris pH 7.5
2.7λ cold ATP (stock of 10 mM in 50 mM
Vortex, incubate 10 min on ice
Add 45λ 2×SDS-sample buffer, heat 95° C. 6 min
7.5% SDS-PAGE, fix, dry, expose (usually 4 hrs)

T2 sequence (P07333 20-972): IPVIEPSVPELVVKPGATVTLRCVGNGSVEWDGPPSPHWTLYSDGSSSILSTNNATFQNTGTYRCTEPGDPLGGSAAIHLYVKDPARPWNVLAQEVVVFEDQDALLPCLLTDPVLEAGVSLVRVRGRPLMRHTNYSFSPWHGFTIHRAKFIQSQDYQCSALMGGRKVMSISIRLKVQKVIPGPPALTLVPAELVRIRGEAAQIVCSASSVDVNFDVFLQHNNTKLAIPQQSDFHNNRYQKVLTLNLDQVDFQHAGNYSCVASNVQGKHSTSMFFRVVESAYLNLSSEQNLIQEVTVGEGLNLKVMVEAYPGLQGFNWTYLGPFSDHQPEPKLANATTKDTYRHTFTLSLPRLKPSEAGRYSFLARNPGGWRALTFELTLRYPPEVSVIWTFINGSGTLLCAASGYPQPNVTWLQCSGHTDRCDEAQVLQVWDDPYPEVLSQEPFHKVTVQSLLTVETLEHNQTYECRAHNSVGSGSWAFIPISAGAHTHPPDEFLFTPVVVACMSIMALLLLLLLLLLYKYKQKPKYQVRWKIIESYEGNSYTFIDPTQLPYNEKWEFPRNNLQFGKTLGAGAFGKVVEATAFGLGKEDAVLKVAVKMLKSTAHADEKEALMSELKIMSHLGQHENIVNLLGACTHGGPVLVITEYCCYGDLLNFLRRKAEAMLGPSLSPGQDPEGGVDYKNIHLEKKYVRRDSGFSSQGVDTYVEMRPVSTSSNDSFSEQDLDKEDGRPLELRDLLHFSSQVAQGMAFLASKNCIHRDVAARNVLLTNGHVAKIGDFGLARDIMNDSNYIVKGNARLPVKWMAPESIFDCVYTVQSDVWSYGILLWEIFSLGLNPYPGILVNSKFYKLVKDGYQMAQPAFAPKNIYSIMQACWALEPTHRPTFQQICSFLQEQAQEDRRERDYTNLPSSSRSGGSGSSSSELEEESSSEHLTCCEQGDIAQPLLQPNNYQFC
T1 sequence (P06239 whole entry): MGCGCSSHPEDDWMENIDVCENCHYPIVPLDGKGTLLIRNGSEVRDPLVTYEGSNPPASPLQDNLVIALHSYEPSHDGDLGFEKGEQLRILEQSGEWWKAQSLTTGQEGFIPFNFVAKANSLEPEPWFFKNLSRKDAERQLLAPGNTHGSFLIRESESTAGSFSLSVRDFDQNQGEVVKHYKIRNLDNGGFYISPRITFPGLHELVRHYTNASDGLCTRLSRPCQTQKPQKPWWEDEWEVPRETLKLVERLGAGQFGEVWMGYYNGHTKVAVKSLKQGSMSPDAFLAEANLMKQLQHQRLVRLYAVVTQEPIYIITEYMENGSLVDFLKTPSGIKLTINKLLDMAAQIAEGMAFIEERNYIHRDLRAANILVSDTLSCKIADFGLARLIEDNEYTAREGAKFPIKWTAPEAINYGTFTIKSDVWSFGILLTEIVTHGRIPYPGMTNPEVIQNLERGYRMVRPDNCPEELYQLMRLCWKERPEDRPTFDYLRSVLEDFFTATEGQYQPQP

Structure (SMILES) | IC50 (p56^Ick tyrosine kinase) [µM] | IC50 (CSF-1R tyrosine kinase) [µM] | melting point [°C]
COc1cc2ncnc(NCc3ccccc3)c2cc1OC | 20 | ≥ 20 | –
COc1ccc(Nc2ncnc3cc(OC)c(OC)cc23)cc1OC | – | > 20 | –
COc1cc2ncnc(Oc3cccc(Cl)c3)c2cc1OC [Example 1, 4-(3-Chlorophenoxy)-6,7-dimethoxyquinazoline] | – | – | 152 to 153
COc1cc2ncnc(NC3CCCCC3)c2cc1OC | – | > 50 | –
COc1cc2ncnc(Nc3cc(OC)c(OC)c(OC)c3)c2cc1OC | – | > 100 | –
COc1cc2ncnc(Nc3cccc4ccccc34)c2cc1OC | 2.5 | > 50 | –
COc1cc2ncnc(-c3cccc(-c4ccccc4)c3)c2cc1OC | 2.9 | 15 | –
COc1cc2ncnc(Nc3ccc4ccccc4c3)c2cc1OC | – | > 50 | –
COc1cc2ncnc(Oc3cc(OC)c(OC)c(OC)c3)c2cc1OC | 5 | > 50 | –
COc1cc2ncnc(Oc3cccc(Cl)c3)c2cc1OC [drawing 19] | 1 | > 50 | –
COc1cc(Nc2ncnc3cc(OC)c(OC)cc23)cc(OC)c1 | – | > 100 | –

Further compounds by falling IC50 (CSF-1R tyrosine kinase), results first:

IC50 (p56^Ick tyrosine kinase) [µM] | IC50 (CSF-1R tyrosine kinase) [µM] | melting point [°C] | Structure (SMILES)
> 10 | 6 | – | COc1cc2ncnc(-c3ccsc3)c2cc1OC
> 50 | 4 | – | CCN(c1ccccc1)c1ncnc2cc(OC)c(OC)cc12
2.5 | 3 | – | COc1cc2ncnc(Sc3cccc(Cl)c3)c2cc1OC
5 | 1 | – | COc1cccc(Sc2ncnc3cc(OC)c(OC)cc23)c1
> 50 | 0.5 | – | COc1cc2ncnc(N(C)c3ccccc3)c2cc1OC
